# Measured values published in the Kinase Knowledgebase extract (Sharma et al. 2016).
# pIC50: −log10 of the molar value.
# Molecular target: MAPK14 (human) (UniProt Q16539)
# Assay: Inhibition of MAPK14 Kinase Activity
# MAPK14 (human), sequence (Q16539 whole entry, looked up): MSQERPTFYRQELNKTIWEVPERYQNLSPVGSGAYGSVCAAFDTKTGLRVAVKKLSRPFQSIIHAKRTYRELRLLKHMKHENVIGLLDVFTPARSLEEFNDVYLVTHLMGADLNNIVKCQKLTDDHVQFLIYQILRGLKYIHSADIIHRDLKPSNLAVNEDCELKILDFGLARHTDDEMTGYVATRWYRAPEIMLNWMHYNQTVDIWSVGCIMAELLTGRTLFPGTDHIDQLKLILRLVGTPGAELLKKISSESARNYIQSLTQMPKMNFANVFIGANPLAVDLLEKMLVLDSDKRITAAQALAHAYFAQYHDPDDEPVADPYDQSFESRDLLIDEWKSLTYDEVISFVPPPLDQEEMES
row,Structure (SMILES),pIC50
1,O=C(c1cc(F)ccc1F)c1c[nH]c2ncc(-c3ccsc3)cc12,≥ 5.00
2,Oc1cccc(Cc2c[nH]c3ncc(-c4ccsc4)cc23)c1,≥ 5.00
3,Nc1cccc(-c2cnc3[nH]cc(C(=O)c4ccccc4F)c3c2)c1,≥ 5.00
4,CS(=O)(=O)Nc1ccc(F)c(C(=O)c2c[nH]c3ncc(-c4cccnc4)cc23)c1F,≥ 5.00
5,Nc1cccc(-c2cnc3[nH]cc(C(=O)c4ccc(Cl)cc4)c3c2)c1,≥ 5.00
6,O=C(c1cccc(NCc2ccccc2)c1)c1c[nH]c2ncccc12,≥ 5.00
7,CS(=O)(=O)Nc1cccc(-c2cnc3[nH]cc(C(=O)c4c(Cl)ccc(NS(C)(=O)=O)c4F)c3c2)c1,≥ 5.00
8,COc1cc(O)cc(Cc2c[nH]c3ncc(-c4ccsc4)cc23)c1,≥ 5.00
9,O=C(c1ccc(O)cc1Cl)c1c[nH]c2ncc(-c3cccs3)cc12,≥ 5.00
10,CS(=O)(=O)Nc1ccc(F)c(C(=O)c2c[nH]c3ncc(-c4cccc(C(N)=O)c4)cc23)c1F,≥ 5.00
11,COC(=O)Nc1ccc(F)c(Cc2c[nH]c3ncc(-c4cccnc4)cc23)c1F,≥ 5.00
12,NC(=O)c1ccc(-c2cnc3[nH]cc(C(=O)c4cccc(O)c4)c3c2)cc1,≥ 5.00
13,CCc1cnc2[nH]cc(C(=O)c3cccc(O)c3)c2c1,≥ 5.00
14,COc1ccc(F)c(C(=O)c2c[nH]c3ncc(-c4cccnc4)cc23)c1,≥ 5.00
15,Cc1c(NS(C)(=O)=O)cccc1C(=O)c1c[nH]c2ncc(-c3ccccc3)cc12,≥ 5.00
16,CS(=O)(=O)Nc1ccc(F)c(C(=O)c2c[nH]c3ncc(-c4cccc(C(N)=O)c4)cc23)c1,≥ 5.00
17,Cc1ccc(F)cc1C(=O)c1c[nH]c2ncc(-c3ccc(C(N)=O)cc3)cc12,≥ 5.00
18,CS(=O)(=O)Nc1cccc(-c2cnc3[nH]cc(C(=O)c4c(F)ccc(NS(C)(=O)=O)c4F)c3c2)c1,≥ 5.00
19,O=C(c1c(F)ccc(NS(=O)(=O)c2ccccc2)c1F)c1c[nH]c2ncc(Br)cc12,≥ 5.00
20,O=C(c1ccccc1F)c1c[nH]c2ncc(-c3ccccn3)cc12,≥ 5.00
21,O=C(c1cccc(O)c1F)c1c[nH]c2ncc(-c3cccs3)cc12,≥ 5.00

row,Structure (SMILES),pIC50
1,O=C(Nc1ccc(Cc2c[nH]c3ncccc23)cc1)Nc1cccc(C(F)(F)F)c1,≥ 5.00
2,CS(=O)(=O)Nc1ccc(F)c(C(=O)c2c[nH]c3ncc(-c4ccccc4)cc23)c1F,≥ 5.00
3,O=C(c1cc(O)ccc1F)c1c[nH]c2ncc(-c3ccsc3)cc12,≥ 5.00
4,CS(=O)(=O)Nc1ccc(Cl)c(C(=O)c2c[nH]c3ncc(Br)cc23)c1F,≥ 5.00
5,CCCS(=O)(=O)Nc1ccc(Cl)c(C(=O)c2c[nH]c3ncc(-c4cccnc4)cc23)c1F,≥ 5.00
6,CS(=O)(=O)Nc1ccc(F)c(C(=O)c2c[nH]c3ncc(-c4ccccc4)cc23)c1,≥ 5.00
7,O=C(c1c(F)ccc(NS(=O)(=O)c2ccccc2)c1F)c1c[nH]c2ncc(-c3cccnc3)cc12,≥ 5.00
8,CCCS(=O)(=O)Nc1ccc(F)c(C(=O)c2c[nH]c3ncc(Br)cc23)c1F,≥ 5.00
9,Cc1c(O)cccc1C(=O)c1c[nH]c2ncc(-c3ccccc3)cc12,≥ 5.00
10,CS(=O)(=O)Nc1ccc(Cl)c(C(=O)c2c[nH]c3ncc(-c4cccc(S(C)(=O)=O)c4)cc23)c1F,≥ 5.00
11,O=S(=O)(NCc1c[nH]c2ncccc12)c1ccc(N2CCOCC2)nc1,≥ 5.00
12,Nc1cccc(-c2cnc3[nH]cc(C(=O)c4ccc5nsnc5c4)c3c2)c1,≥ 5.00
13,CC(=O)Nc1cccc(-c2cnc3[nH]cc(C(=O)c4cccc(O)c4F)c3c2)c1,≥ 5.00
14,c1cnc2ccc(Nc3ccnc4[nH]ccc34)cc2c1,≥ 5.00
15,O=C(c1ccccc1O)c1c[nH]c2ncc(-c3cccs3)cc12,≥ 5.00
16,Cc1ccccc1C(=O)c1c[nH]c2ncc(-c3cccc(N)c3)cc12,≥ 5.00
17,O=C(c1ccccc1F)c1c[nH]c2ncccc12,≥ 5.00
18,COc1cccc(C(=O)c2c[nH]c3ncc(-c4cccs4)cc23)c1,≥ 5.00
19,CCCNC(=O)Nc1ccc(F)c(C(=O)c2c[nH]c3ncc(-c4cccnc4)cc23)c1F,≥ 5.00
20,O=S(=O)(NCc1c[nH]c2ncccc12)c1cc(Cl)c(Cl)s1,≥ 5.00
